Test results as given in the supplement of paper PMC8960247.
Counter-ions that a name gives are not always drawn. ± gives the standard error.

System: 621-102 (TSC2-deficient)
Experiment: relative viability vs DMSO; higher = less cytotoxic
Conditions: 1 µM; serum: 10% FBS; 72 h
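Note: immortalized renal angiomyolipoma cells stably carrying empty vector or TSC2, dosed in 384-well plates in DMEM, viability normalized to vehicle-treated wells within each plate.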

Point of comparison: `Nc1[nH]cnc2ncnc1-2` [Adenine], relative viability 101 ± 2.1%. Against it:
- CC(=O)O[C@H]1CC[C@@]2(C)C(=CC[C@@H]3[C@@H]2CC[C@]2(C)C(c4cccnc4)=CC[C@@H]32)C1 [Abiraterone Acetate (CB7630)] — within error, 103 ± 1.2%
- CC(=O)Nc1ccccc1 [Acetanilide] — higher, 113 ± 3.1%
- Nc1[nH]cnc2ncnc1-2 [Adenine HCl] — within error, 96.5 ± 6.5%
- COc1cccc2c1C(=O)c1c(O)c3c(c(O)c1C2=O)C[C@@](O)(C(=O)CO)C[C@@H]3O[C@H]1C[C@H](N)[C@H](O)[C@H](C)O1 [Adriamycin] — lower, 17.4 ± 2.1%
- NCCCC(O)(P(=O)(O)O)P(=O)(O)O [Alendronate Sodium] — within error, 99 ± 3.1%
- COCCCOc1cc(C[C@@H](C[C@H](N)[C@@H](O)C[C@H](C(=O)NCC(C)(C)C(N)=O)C(C)C)C(C)C)ccc1OC [Aliskiren hemifumarate] — within error, 98.8 ± 5.5%
- O=C1c2ccccc2C(=O)c2c1ccc(O)c2O [Alizarin] — higher, 107 ± 2.9%
- Oc1ncnc2[nH]ncc12 [Allopurinol] — within error, 99.48 ± 0.58%
- NC12CC3CC(CC(C3)C1)C2 [Amantadine HCl (Symmetrel)] — the same, 100.9 ± 0.5%
- CC(NC(C)(C)C)C(=O)c1cccc(Cl)c1 (centres undefined) [Amfebutamone] — within error, 103 ± 2.4%
- CCN1CCCC1CNC(=O)c1cc(S(=O)(=O)CC)c(N)cc1OC (centres undefined) [Amisulpride] — higher, 107.5 ± 0.4%
- CCOC(=O)C1=C(COCCN)NC(C)=C(C(=O)OC)C1c1ccccc1Cl (centres undefined) [Amlodipine besylate] — lower, 65.1 ± 9.1%
- CC(C)(C#N)c1cc(Cn2cncn2)cc(C(C)(C)C#N)c1 [Anastrozole (Arimidex)] — higher, 120 ± 1.5%
- N#CC1(c2ccc(NC(=O)c3cccnc3NCc3ccncc3)cc2)CCCC1 [Apatinib] — within error, 102 ± 4.9%
- O=c1cc(-c2ccc(O)cc2)oc2cc(O)cc(O)c12 [Apigenin] — higher, 111 ± 2.9%
- COc1ccc(-n2nc(C(N)=O)c3c2C(=O)N(c2ccc(N4CCCCC4=O)cc2)CC3)cc1 [Apixaban] — lower, 91.79 ± 0.34%
- COc1cc(OC)c(OC)cc1C=O [Asaraldehyde] — higher, 113.4 ± 0.62%
- CN1CC2c3ccccc3Oc3ccc(Cl)cc3C2C1 (centres undefined) [Asenapine maleate] — higher, 110 ± 3.4%
- CN1[C@@H]2CC[C@H]1C[C@@H](OC(=O)C(CO)c1ccccc1)C2 (some centres undefined) [Atropine sulfate monohydrate] — lower, 70.8 ± 5.3%

Same assay, conditions: 10 µM; serum: 10% FBS; 72 h

Point of comparison: `CC(C)(C)c1cc(NC(=O)Nc2ccc(-c3cn4c(n3)sc3cc(OCCN5CCOCC5)ccc34)cc2)no1` [AC-220], relative viability 53.1 ± 3%. Against it:
- CC1(C)CCC(c2ccc(Cl)cc2)=C(CN2CCN(c3ccc(C(=O)NS(=O)(=O)c4ccc(N[C@H](CCN5CCOCC5)CSc5ccccc5)c(S(=O)(=O)C(F)(F)F)c4)cc3)CC2)C1 [ABT-263 (Navitoclax)] — higher, 68.4 ± 0.82%
- COc1ccc(S(=O)(=O)Nc2cccnc2Nc2ccc(O)cc2)cc1 [ABT-751] — lower, 49.55 ± 0.36%
- Cc1ccc(F)c(NC(=O)Nc2ccc(-c3cccc4[nH]nc(N)c34)cc2)c1 [ABT-869] — higher, 86 ± 1.5%
- C[C@]1(c2nc3c(C(N)=O)cccc3[nH]2)CCCN1 [ABT-888] — higher, 104 ± 3.6%
- N#C/C(=C\c1ccc(O)c(O)c1)C(=O)NCc1ccccc1 [AG-490] — higher, 81 ± 1.6%
- Cc1csc(-c2nnc(Nc3ccc(Oc4ncccc4-c4ccnc(N)n4)cc3)c3ccccc23)c1 [AMG900] — higher, 76 ± 2.4%
- CC(C)[C@H](C(=O)Nc1ccc(C(=O)NO)cc1)c1ccccc1 [AR-42 (HDAC-42)] — lower, 41 ± 1.6%
- Clc1ccc(C2(c3ccc(-c4cn[nH]c4)cc3)CCNCC2)cc1 [AT7867] — within error, 49.2 ± 3.2%
- COc1cc2nccc(Oc3ccc(NC(=O)Nc4cc(C)on4)c(Cl)c3)c2cc1OC [AV-951(Tivozanib)] — higher, 77.33 ± 0.38%
- Cc1cc(Nc2nc(N[C@@H](C)c3ccc(F)cc3)c(C#N)cc2F)n[nH]1 [AZ 960] — lower, 44.9 ± 4.3%
- CCN(CCO)CCCOc1ccc2c(Nc3cc(CC(=O)Nc4cccc(F)c4)[nH]n3)ncnc2c1 [AZD1152-HQPA (Barasertib)] — higher, 73 ± 1.6%
- Cc1cc(Nc2nc(N[C@@H](C)c3ncc(F)cn3)ncc2Cl)[nH]n1 [AZD1480] — higher, 87.7 ± 1.2%
- O=C(c1cc(Cc2n[nH]c(=O)c3ccccc23)ccc1F)N1CCN(C(=O)C2CC2)CC1 [AZD2281 (Olaparib)] — higher, 81.75 ± 0.48%
- Cc1ncc(-c2ccnc(Nc3ccc(S(C)(=O)=O)cc3)n2)n1C(C)C [AZD5438] — lower, 11.69 ± 0.054%
- Cn1cnc2c(F)c(Nc3ccc(Br)cc3Cl)c(C(=O)NOCCO)cc21 [AZD6244 (Selumetinib)] — higher, 88.21 ± 0.5%
- COc1ccc(-c2ccc3c(N4CCOC[C@@H]4C)nc(N4CCOC[C@@H]4C)nc3n2)cc1CO [AZD8055] — lower, 19 ± 0.54%
- Cc1cc(C(=O)NOCCO)c(Nc2ccc(I)cc2F)n(C)c1=O [AZD8330] — higher, 58.5 ± 0.66%
- CNC(=O)CN1CCC(Oc2cc3c(Nc4cccc(Cl)c4F)ncnc3cc2OC)CC1 [AZD8931] — higher, 93.4 ± 4.9%
- CC(=O)O[C@H]1CC[C@@]2(C)C(=CC[C@@H]3[C@@H]2CC[C@]2(C)C(c4cccnc4)=CC[C@@H]32)C1 [Abiraterone Acetate (CB7630)] — higher, 94.6 ± 2.4%
- CC(=O)Nc1ccccc1 [Acetanilide] — higher, 104 ± 1.7%
- Nc1[nH]cnc2ncnc1-2 [Adenine HCl] — higher, 110.8 ± 1.1%
- Nc1[nH]cnc2ncnc1-2 [Adenine] — higher, 112.7 ± 0.18%
- COc1cccc2c1C(=O)c1c(O)c3c(c(O)c1C2=O)C[C@@](O)(C(=O)CO)C[C@@H]3O[C@H]1C[C@H](N)[C@H](O)[C@H](C)O1 [Adriamycin] — lower, 5.59 ± 0.56%
- NCCCC(O)(P(=O)(O)O)P(=O)(O)O [Alendronate Sodium] — higher, 104.6 ± 0.43%
- COCCCOc1cc(C[C@@H](C[C@H](N)[C@@H](O)C[C@H](C(=O)NCC(C)(C)C(N)=O)C(C)C)C(C)C)ccc1OC [Aliskiren hemifumarate] — higher, 95.9 ± 5.5%
- O=C1c2ccccc2C(=O)c2c1ccc(O)c2O [Alizarin] — higher, 83 ± 3%
- Oc1ncnc2[nH]ncc12 [Allopurinol] — higher, 101.9 ± 0.86%
- NC12CC3CC(CC(C3)C1)C2 [Amantadine HCl (Symmetrel)] — higher, 98.09 ± 0.17%
- CC(NC(C)(C)C)C(=O)c1cccc(Cl)c1 (centres undefined) [Amfebutamone] — higher, 103 ± 3.5%
- CCN1CCCC1CNC(=O)c1cc(S(=O)(=O)CC)c(N)cc1OC (centres undefined) [Amisulpride] — higher, 110 ± 1.6%
- CCOC(=O)C1=C(COCCN)NC(C)=C(C(=O)OC)C1c1ccccc1Cl (centres undefined) [Amlodipine besylate] — within error, 53.6 ± 2.7%
- CC(C)(C#N)c1cc(Cn2cncn2)cc(C(C)(C)C#N)c1 [Anastrozole (Arimidex)] — higher, 119 ± 4.3%
- N#CC1(c2ccc(NC(=O)c3cccnc3NCc3ccncc3)cc2)CCCC1 [Apatinib] — higher, 101.34 ± 0.059%
- O=c1cc(-c2ccc(O)cc2)oc2cc(O)cc(O)c12 [Apigenin] — higher, 112 ± 5.7%
- COc1ccc(-n2nc(C(N)=O)c3c2C(=O)N(c2ccc(N4CCCCC4=O)cc2)CC3)cc1 [Apixaban] — higher, 111 ± 2.4%
- COc1cc(OC)c(OC)cc1C=O [Asaraldehyde] — higher, 92.3 ± 1.9%
- CN1CC2c3ccccc3Oc3ccc(Cl)cc3C2C1 (centres undefined) [Asenapine maleate] — higher, 89.34 ± 0.58%
- CN1[C@@H]2CC[C@H]1C[C@@H](OC(=O)C(CO)c1ccccc1)C2 (some centres undefined) [Atropine sulfate monohydrate] — higher, 63.6 ± 6.5%
